Data published in patent EP0533350B1, “DNA encoding precursor interleukin 1B converting enzyme” (Merck & Co., Inc., priority 1991, dated 1993).
Like-named read-outs stand apart in the source and are kept apart here. One block for each molecule: values may come before it. Where a SMILES comes first, the peptide text is derived from it. [ ]: non-standard residue; d: D form. The star is where a group is joined. Sta = CC(C)C[C@H](N)[C@@H](O)CC(=O)O; Isovaleryl = CC(C)CC(=O)*

Assays:
ICE [1] = target: T1, ICE (Homo sapiens, UniProt P29466); assay: Protease inhibitor sensitivity of ICE: inhibitor added to THP.1 S-300, gel-based pre-IL-1β cleavage assay
T1 sequence (P29466 120-297): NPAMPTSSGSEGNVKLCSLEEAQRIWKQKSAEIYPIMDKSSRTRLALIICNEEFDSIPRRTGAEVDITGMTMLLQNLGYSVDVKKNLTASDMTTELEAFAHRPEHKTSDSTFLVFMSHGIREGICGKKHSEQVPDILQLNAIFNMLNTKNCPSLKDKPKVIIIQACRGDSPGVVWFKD
T1 sequence (P29466 317-404): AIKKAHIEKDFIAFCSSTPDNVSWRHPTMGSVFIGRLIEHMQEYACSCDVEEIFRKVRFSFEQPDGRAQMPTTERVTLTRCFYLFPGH

recombinant ICE = target: T2, recombinant ICE (Homo sapiens, UniProt P29466); assay: IL-1β precursor cleavage by lysates of COS-7 cells transfected with full-length ICE cDNA; type: biochemical; conditions: lysates of COS-7 cells transfected with ICE cDNA
T2 construct: transfection of full-length ICE cDNA, including the complete ORF of the 45 kDa ICE preprotein; expressed in transfected cells; host or cells: COS-7 cells, vector pSZ-9016 co-transfected with pX8TAT; detergent lysate
T2 sequence (P29466 120-297 limits assumed): T1 sequence (P29466 120-297)
T2 sequence (P29466 317-404 limits assumed): T1 sequence (P29466 317-404)
Protocol: The expression of recombinant ICE was achieved by transfection of full-length ICE cDNA, including the complete ORF of the 45 kDa ICE preprotein (Fig. 23), into a mammalian host cell. The 1.6 kb EcoRI fragment containing the full length ICE cDNA was cloned into vector pSZ-9016. 6µg of this DNA along with 0.6 ug of pX8TAT, a mammalian expression vector which places the trans-activating protein (TAT) of HIV under the control of the SV40 early promoter, was transfected into COS-7 cells by the cationic-liposome method. Cells were harvested 48 hours later and lysed in detergent buffer (25 mM HEPES pH 7, 1% Triton-X-100, 1mM EDTA, 2mM DTT, 10 ug/ml aprotinin, 10 ug/ml leupeptin, 10 ug/ml pepstatin, and 2 mM PMSF). Cell lysates were incubated with radiolabeled IL-1β precursor to measure ICE activity. Cleavage products of IL-1β were analyzed by immunoprecipitation with IL-1B antibody and fractionation on SDS polyacrylamide gels. The IL-1β precursor was cleaved to the mature, 17 kDa form by cells transfected with ICE cDNA, but not by cells transfected with the expression plasmid alone. […] The substrate specificity of the expressed ICE activity was verified by incubating lysates with an IL-1β precursor cleavage site mutant (Ala^116) which cannot be cleaved by ICE. […]

ICE [2] = target: T1, ICE; assay: Inhibition of ICE by mechanism based thiol protease inhibitors (diazomethyl ketone, peptide aldehydes); type: biochemical; set-up: endogenous in cells; host or cells: THP.1 cells (or human peripheral blood monocytes); cytosolic extract, ammonium sulfate, DEAE, sulfopropyl cation exchange; conditions: relative to Ac-Tyr-Val-Ala-Asp-CHO
Source text: Characterization of ICE in terms of protease class was ultimately accomplished by the synthesis of two types of mechanism based thiol protease inhibitors, a diazomethyl ketone and a peptide aldehyde, both constructed from the Ac-Tyr-Val-Ala-Asp peptide. The peptidyl diazomethyl ketone (Ac-Tyr-Val-Ala-Asp-CHN2) and the peptide aldehyde (Ac-Tyr-Val-Ala-Asp-CHO) were both synthesized as described in an accompanying patent. […] However, the specificity of action on ICE has been determined by synthesis of a chemically similar peptide aldehyde, Ac-Tyr(dAla)-Val-Ala-Asp-CHO and tested for its ability to inhibit ICE in a competitive and reversible manner.

ICE [3] = target: T1, ICE; assay: Mixed disulfide treatment of ICE, continuous fluorometric assay, DTT reversal and dilution stability; type: biochemical; set-up: endogenous in cells; host or cells: THP.1 cells, S-300 (300,000 x g) cytosolic supernatant
ICE [4] = target: T1, ICE; assay: Size exclusion chromatography (TSK G2000) of GSSG or cystamine treated ICE; set-up: endogenous in cells; host or cells: THP.1 cells, S-300 (300,000 x g) cytosolic supernatant; conditions: concentrated ICE pretreated 24 hrs, TSK G2000 column
ICE [5] = target: T1, ICE
ICE [6] = target: T1, ICE; assay: Discontinuous kinetic assay of ICE with P14mer as substrate; type: biochemical; set-up: endogenous in cells; host or cells: THP.1 cells, S-300 (300,000 x g) cytosolic supernatant
Protocol: Proteolytic cleavage of peptide substrates from Example 12 was carried out in the following manner. Samples of peptides were prepared in dimethyl sulfoxide at a concentration of 10 mM. The enzyme used in these studies was purified through sulfopropyl cation exhange chromatography. Reaction mixtures contained approximately 0.2 mg/ml enzyme, 0.2 mM peptide, 10% sucrose, 0.1% CHAPS (3-[(3-cholamidopropyl)dimethyl-ammonio]-1-propansulfon at), 10 mM HEPES (N-2-hydroxyethylpiperazine-N'-2-ethanesulfonic Acid), pH 7.5 in a 50 ul reaction volume. After incubation at 25 degrees for variable lengths of time, reactions were quenched with the addition of 450 ul 0.1% trifluoroacetic acid. The samples were analyzed by reverse-phase high performance liquid chromatography using a Vydac C-18 column (4.6 mm x 25 cm, 5 um particle size, 300 pore size) equilibrated with 5% acetonitrile, 0.1% trifluoroacetic acid at a flow rate of 1 ml/min. Peptides were eluted using a 10 min linear gradient of 5 to 30% acetonitrile and quantitated by monitoring the column effluent at 280 nm. Under these conditions substrate and tyrosine-containing product were separated with baseline resolution in every case. The identity of cleavage products was confirmed using peptide standards.
The data in Table 3 was generated using partially purified enzyme or THP-1 […] and the gel-based cleavage assay as an indicator of ICE activity. This has been verified and extended using the P14mer assay as well as Ac-Tyr-Val-Ala-Asp-AMC as substrates. The only exception to the results of this table came when 1,10 phenanthroline (OP) was tested as an inhibitor. […] The rate constant (8 x 10-2 s-1 M-1) for inactivation is slow and it is not possible to reconstitute ICE activity by addition of ZnC12 following treatment with the chelator. […] The data is not consistent with the hypothesis that ICE is a metalloprotease.

Molecule: Cc1ccc(S(=O)(=O)N[C@@H](CCCCN)C(=O)CCl)cc1 [TLCK]
Inhibition (ICE [1]): +

Molecule: Cc1ccc(S(=O)(=O)N[C@@H](Cc2ccccc2)C(=O)CCl)cc1 [TPCK]
Inhibition (ICE [1]): +

Molecule: CCN1C(=O)C=CC1=O [N-ethyl maleimide]
Inhibition (ICE [1]): +

Molecule: NC(=O)CI [Iodoacetamide]
Inhibition (ICE [1]): +

Molecule: PMSF
Inhibition (ICE [1]): -

Molecule: O=C(O)CI [Iodoacetic acid]
rate constant for inactivation of ICE (ICE [5]): 24 M⁻¹ s⁻¹ | half-time of inhibition (ICE [5]; 100 mM iodoacetate, substrate at 1 * Km): 9.13 min | ICE inactivated (ICE [5]; 100 mM radiolabeled iodoacetate, 2.8 mM Ac-Tyr-Val-Ala-Asp-AMC (200 x Km) included): < 2% | Inhibition (ICE [1]): +

Molecule: CC(=O)N[C@@H](CC(C)C)C(=O)N[C@@H](CC(C)C)C(=O)N[C@H](C=O)CCCNC(=N)N [Leupeptin]
Inhibition (ICE [1]): -

Continued, in another order:

Inhibition (ICE [1]; Conc. 100 µM): -
Molecule: CC(C)CC(=O)N[C@H](C(=O)N[C@H](C(=O)N[C@@H](CC(C)C)[C@@H](O)CC(=O)N[C@@H](C)C(=O)N[C@@H](CC(C)C)[C@@H](O)CC(=O)O)C(C)C)C(C)C [Chloromethyl ketonePepstatin, Pepstatin] (Isovaleryl-VV[Sta]A[Sta]-OH)

Inhibition (ICE [1]; Conc. 1 mM): -
Molecule: CC(C)CC(NC(=O)C1OC1C(=O)O)C(=O)NCCCCNC(=N)N (stereo not shown) [Compound E-64]

inhibition of IL-1β precursor cleavage to the mature 17 kDa form (recombinant ICE): completely inhibited
Molecule: CC(=O)N[C@@H](Cc1ccc(O)cc1)C(=O)N[C@H](C(=O)N[C@@H](C)C(=O)N[C@H](C=O)CC(=O)O)C(C)C [L-709,049]

Inhibition (ICE [1]; Conc. 1 mM): +
Molecule: O=C1C=CC(=O)N1c1ccccc1 [N-phenyl maleimide]

less potent at inhibiting ICE activity (ICE [2]): 300 fold
Molecule: Ac-Tyr(dAla)-Val-Ala-Asp-CHO

Inhibition (ICE [1]; Conc. 10 mM): -
Molecule: O=C(O)CN(CCOCCOCCN(CC(=O)O)CC(=O)O)CC(=O)O [EGTA]

half-time of time dependant decrease in activity (ICE [3]; 5 mM cystamine): 19 min | enzyme activity recovered (ICE [3]; addition of DTT after the inactivation plateau, 5 mM cystamine): 23% | recovery of activity (ICE [3]; concentrated ICE (3 units/ml), 5 mM cystamine, 3 day equilibration at 4 °C, then DTT): Complete recovery of activity | stabilization of ICE activity (ICE [3]; upon dilution of treated enzyme): did not appear to stabilize ICE activity | apparent Mr of treated enzyme (ICE [4]): 22,000 | Inhibition (ICE [1]; Conc. 1 mM): +
Molecule: NCCSSCCN [Cystamine]

Inhibition (ICE [1]; Conc. 50 mM): -
Molecule: O=C(O)CN(CCN(CC(=O)O)CC(=O)O)CC(=O)O [EDTA]

increase in the rate at which ICE is inhibited (ICE [6]; addition of 10 mM CuSO4 to assay containing 1.0 mM OP): 17 fold | inhibition of ICE on co-treatment with two metal chelators (ICE [6]; co-treatment with EDTA and OP): did not result in an inhibition of ICE | inhibition of ICE activity in the gel based cleavage assay (ICE [1]): did not inhibit | Inhibition (ICE [1]; Conc. 10 mM): -
Molecule: c1cnc2c(c1)ccc1cccnc12 [1,10-phenanthroline]
inhibition of ICE activity (ICE [6]; P14mer as substrate): can inhibit ICE activity in a time and concentration dependant manner
